Experimental data reported in PubChem BioAssay (NCI).
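Values below derive from 48-hour exposures of cells grown in 96-well plates, with endpoints linearly interpolated between the two concentrations bracketing the appropriate inhibition level. TGI: total growth inhibition.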

Legend:
Test in all cases: growth of human tumour cells (NCI), 48 h
HCT-116 colon = test system: HCT-116 colon
HCT-15 colon = test system: HCT-15 colon
K-562 leukemia = test system: K-562 leukemia
MALME-3M melanoma = test system: MALME-3M melanoma
MCF7 breast = test system: MCF7 breast
MOLT-4 leukemia = test system: MOLT-4 leukemia
NCI-H226 lung = test system: NCI-H226 lung
NCI-H23 lung = test system: NCI-H23 lung
PC-3 prostate = test system: PC-3 prostate
SF-268 CNS = test system: SF-268 CNS
SF-295 CNS = test system: SF-295 CNS
T-47D breast = test system: T-47D breast
UO-31 renal = test system: UO-31 renal

Measured: TGI

NNS(=O)(=O)c1ccc(/C=C2\NC(=O)NC2=O)cc1
> 100 µM: all assays above

Nc1ccn(CC(O)c2cc3ccccc3[nH]2)c(=O)n1 (stereo unspecified)
> 100 µM: all assays above
